Drawing on patent publication US12643887B2, “Heterocyclic derivatives with cardiomyocyte proliferation activity for treatment of heart diseases” (Tongji University, priority 2019, dated 2026), this text covers IC50 for 27 molecules.

In the assay the target is T1, human GSK3 beta (Homo sapiens, UniProt P49841).
T1 construct: Recombinant full-length human GSK3 beta (expressed in Sf9 insect cells with an N-terminal His tag); His (N); purchased SignalChem G09-10H; host or cells: Sf9 insect cells
T1 sequence (P49841 whole entry): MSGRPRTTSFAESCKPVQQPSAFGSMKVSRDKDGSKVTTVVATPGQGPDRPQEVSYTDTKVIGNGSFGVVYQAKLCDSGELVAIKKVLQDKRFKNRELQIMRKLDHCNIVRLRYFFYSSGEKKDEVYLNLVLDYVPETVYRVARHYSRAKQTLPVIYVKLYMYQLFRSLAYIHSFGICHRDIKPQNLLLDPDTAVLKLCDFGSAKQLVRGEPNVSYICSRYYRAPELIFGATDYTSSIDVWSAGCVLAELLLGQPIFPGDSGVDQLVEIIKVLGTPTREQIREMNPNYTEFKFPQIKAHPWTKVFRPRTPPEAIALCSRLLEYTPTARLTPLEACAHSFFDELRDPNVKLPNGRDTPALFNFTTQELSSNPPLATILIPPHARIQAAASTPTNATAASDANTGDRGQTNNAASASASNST
Put plainly: GSK3 beta enzyme assay (ADP-Glo). Type of assay: biochemical. Conditions: ATP 25 μM, read-out: GSK3b IC50. The procedure:
1. GSK3 Beta Enzyme Assay
The ability of compounds to inhibit human GSK3 beta kinase activities was determined using a commercially available ADP-Glo™ Kinase Assay kit (Promega, Cat #V9102) according to the manufacturer's protocol. The ADP-Glo™ Kinase Assay is a luminescent ADP detection assay that provides a universal, homogeneous, high-throughput screening method to measure kinase activity by quantifying the amount of ADP produced during a kinase reaction. The ADP-Glo™ Kinase Assay can be used to monitor the activity of virtually any ADP-generating enzymes (e.g., kinases or ATPases).
Recombinant full-length human GSK3 beta (expressed in Sf9 insect cells with an N-terminal His tag) was purchased from SignalChem (Cat #G09-10H). The GSK3 substrate peptide (sequence: […](pS)EDEEE) was purchased from SignalChem (Cat #G50-58). This assay, run in a 384-well plate format, is a generic method for measuring kinase activities using an ADP-Glo Kinase Assay Kit. The basic assay procedure involves two steps: (1) Enzymatic step: inhibitors are incubated with the kinase and then ATP (included in the ADP-Glo Kinase Assay Kit) and the GSK3 substrate peptide are added to start the enzymatic reaction; (2) Detection step: after the kinase reaction, first ADP-Glo™ Reagent is added to terminate the kinase reaction and deplete the remaining ATP. Second, the Kinase Detection Reagent is added to simultaneously convert ADP to ATP and allow the newly synthesized ATP to be measured using a luciferase/luciferin reaction. The light generated is measured using a luminometer.
Briefly, GSK3 beta (4 nM) in the enzymatic buffer solutions (40 mM Tris, pH 7.5, 20 mM MgCl2, 0.1 mg/ml BSA, 50 μM DTT) were mixed with various concentrations of inhibitors (dissolved in 100% DMSO). These solutions were incubated for 30 minutes at 25° C., and subsequently a mixture of substrate peptide and ATP was added with the final peptide and ATP concentrations at 13 μM and 25 μM, respectively. The final reaction mixture of enzyme-substrate-ATP-compound was incubated for 60 minutes at 25° C.
Afterwards ADP-Glo™ Reagent was added and the mixture was incubated at 25° C. for 60 minutes. Then Kinase Detection Reagent was added and the final mixture was incubated at 25° C. for 60 minutes. The luminescence signal of the final solution was measured on an Envision instrument (PerkinElmer). The percent (%) inhibition at each concentration of a compound is calculated relative to the luminescence signal in the Max and Min control wells contained within each assay plate. […] The concentrations and percent inhibition values for a test compound are plotted and the concentration of the compound required to achieve 50% inhibition (IC50) is determined with a four-parameter logistic dose response equation.
Background: In ADP-Glo the light output rises with the ADP produced.
As usually defined, the IC50 is the midpoint of a concentration-inhibition curve. With `O=C1NC(NCc2ccccc2)=N/C1=C\c1ccc2ncsc2c1` [Example 31, (Z)-5-(benzo[d]thiazol-6-ylmethylene)-2-(benzylamino)-3,5-dihydro-4H-imidazol-4-one], the IC50 is 1 to 10 µM.

As for `O=C1NC(Nc2ccc3ncsc3c2)=N/C1=C\c1ccc2cc[nH]c2c1` [Example 63, (Z)-5-((1H-indol-6-yl)methylene)-2-(benzo[d]thiazol-6-ylamino)-3,5-dihydro-4H-imidazol-4-one], the IC50 was greater than 10 µM.

In the case of `Cn1ncc2ccc(/C=C3\N=C(Nc4ccc5ncsc5c4)NC3=O)cc21` [Example 80, (Z)-2-(benzo[d]thiazol-6-ylamino)-5-((1-methyl-1H-indazol-6-yl)methylene)-3,5-dihydro-4H-imidazol-4-one], the IC50 is greater than 10 µM.

Take `CN(CC1CC1)C1=N/C(=C\c2ccc3ncsc3c2)C(=O)N1` [Example 33, (Z)-5-(benzo[d]thiazol-6-ylmethylene)-2-((cyclopropylmethyl)(methyl)amino)-3,5-dihydro-4H-imidazol-4-one]: the IC50 was greater than 10 µM.

Consider `O=C1NC(NCCN2CCOCC2)=N/C1=C\c1ccc2ncsc2c1` [Example 29, (Z)-5-(benzo[d]thiazol-6-ylmethylene)-2-((2-morpholinoethyl)amino)-3,5-dihydro-4H-imidazol-4-one], for which the IC50 was 1 to 10 µM.

Consider `CN(C1=N/C(=C\c2ccc3ncsc3c2)C(=O)N1)c1ccc(Cl)cc1` [Example 24, (Z)-5-(benzo[d]thiazol-6-ylmethylene)-2-((4-chlorophenyl)(methyl)amino)-3,5-dihydro-4H-imidazol-4-one], for which the IC50 was greater than 10 µM.

For the molecule `Cn1cnc2cc(/C=C3\N=C(Nc4ccccc4)NC3=O)ccc21` [Example 71, (Z)-5-((1-methyl-1H-benzo[d]imidazol-5-yl)methylene)-2-(phenylamino)-3,5-dihydro-4H-imidazol-4-one], the half-inhibitory concentration (IC50) is greater than 10 µM.

For `O=C1NC(Nc2ccccc2)=N/C1=C\c1ccc2[nH]cnc2c1` [Example 26, (Z)-5-((1H-benzo[d]imidazol-5-yl)methylene)-2-(phenylamino)-3,5-dihydro-4H-imidazol-4-one], the IC50 fell in the range of 0.1 to 1 µM.

`O=C1NC(Nc2ccc3ncsc3c2)=N/C1=C\c1ccc2c(c1)OCCO2` [Example 74, (Z)-2-(benzo[d]thiazol-6-ylamino)-5-((2,3-dihydrobenzo[b][1,4]dioxin-6-yl)methylene)-3,5-dihydro-4H-imidazol-4-one]: the concentration for half-maximal inhibition (IC50) is greater than 10 µM.

Regarding `CC(C)NC1=N/C(=C\c2ccc3scnc3c2)C(=O)N1` [Example 49, (Z)-5-(benzo[d]thiazol-5-ylmethylene)-2-(isopropylamino)-3,5-dihydro-4H-imidazol-4-one], the IC50 is greater than 10 µM.

With `O=C1NC(Nc2ccccc2)=N/C1=C\c1ccc2nccnc2c1` [Example 16, (Z)-2-(phenylamino)-5-(quinoxalin-6-ylmethylene)-3,5-dihydro-4H-imidazol-4-one], the IC50 fell in the range of 1 to 10 µM.

In the case of `O=C1NC(N(CC2CC2)c2ccccc2)=N/C1=C\c1ccc2c(c1)OCCO2` [Example 39, (Z)-2-((cyclopropylmethyl)(phenyl)amino)-5-((2,3-dihydrobenzo[b][1,4]dioxin-6-yl)methylene)-3,5-dihydro-4H-imidazol-4-one], the IC50 was greater than 10 µM.

In the case of `O=C1NC(N(Cc2ccccc2)c2ccccc2)=N/C1=C\c1ccc2[nH]cnc2c1` [Example 35, (Z)-5-((1H-benzo[d]imidazol-5-yl)methylene)-2-(benzyl(phenyl)amino)-3,5-dihydro-4H-imidazol-4-one], the 50% inhibitory concentration (IC50) was greater than 10 µM.

With `COc1ccc(N(C)C2=N/C(=C\c3ccc4c(c3)OCO4)C(=O)N2)cc1` [Example 12, (Z)-5-(benzo[d][1,3]dioxol-5-ylmethylene)-2-((4-methoxyphenyl)(methyl)amino)-3,5-dihydro-4H-imidazol-4-one], the IC50 is greater than 10 µM.

In the case of `O=C1NC(Nc2ccccc2)=N/C1=C\c1ccc2nn[nH]c2c1` [Example 56, (Z)-5-((1H-benzo[d][1,2,3]triazol-6-yl)methylene)-2-(phenylamino)-3,5-dihydro-4H-imidazol-4-one], the IC50 was 1 to 10 µM.

For the molecule `O=C1NC(Nc2ccccc2)=N/C1=C\c1ccc2sccc2c1` [Example 72, (Z)-5-(benzo[b]thiophen-5-ylmethylene)-2-(phenylamino)-3,5-dihydro-4H-imidazol-4-one], the IC50 was greater than 10 µM.

On to `CN(CC1CC1)C1=N/C(=C\c2ccc3c(c2)OCCO3)C(=O)N1` [Example 19, (Z)-2-((cyclopropylmethyl)(methyl)amino)-5-((2,3-dihydrobenzo[b][1,4]dioxin-6-yl)methylene)-3,5-di hydro-4H-imidazol-4-one], for which the IC50 was greater than 10 µM.

On to `O=C1NC(Nc2ccc3[nH]ccc3c2)=N/C1=C\c1ccc2ncsc2c1` [Example 69, (Z)-2-((1H-indol-5-yl)amino)-5-(benzo[d]thiazol-6-ylmethylene)-3,5-dihydro-4H-imidazol-4-one], for which the IC50 fell in the range of 0.1 to 1 µM.

Consider `O=C1NC(Nc2ccc3ncsc3c2)=N/C1=C\c1ccc2[nH]ccc2c1` [Example 58, (Z)-5-((1H-indol-5-yl)methylene)-2-(benzo[d]thiazol-6-ylamino)-3,5-dihydro-4H-imidazol-4-one], for which the IC50 was greater than 10 µM.

As for `O=C1NC(Nc2ccccc2)=N/C1=C\c1ccc(=O)[nH]c1` [Example 9, (Z)-5-((5-oxo-2-(phenylamino)-1,5-dihydro-4H-imidazol-4-ylidene)methyl)pyridin-2(1H)-one], the IC50 was greater than 10 µM.

`CN(C1=N/C(=C\c2ccc3[nH]cnc3c2)C(=O)N1)c1ccccc1` [Example 30, (Z)-5-((1H-benzo[d]imidazol-5-yl)methylene)-2-(methyl(phenyl)amino)-3,5-dihydro-4H-imidazol-4-one]: the IC50 was greater than 10 µM.

For `O=C1NC(Nc2ccccc2)=N/C1=C\c1ccc2cc[nH]c2c1` [Example 73, (Z)-5-((1H-indol-6-yl)methylene)-2-(phenylamino)-3,5-dihydro-4H-imidazol-4-one], the IC50 was greater than 10 µM.

As for `O=C1NC(Nc2ccc3nc(Nc4ccccc4)sc3c2)=N/C1=C\c1ccc2ncsc2c1` [Example 104, (Z)-5-(benzo[d]thiazol-6-ylmethylene)-2-((2-(phenylamino)benzo[d]thiazol-6-yl)amino)-3,5-dihydro-4H-imidazol-4-one], the IC50 is greater than 10 µM.

For `O=C1NC(Nc2ccc3ncsc3c2)=N/C1=C\c1ccc2nc[nH]c2c1` [Example 76, (Z)-5-((1H-benzo[d]imidazol-6-yl)methylene)-2-(benzo[d]thiazol-6-ylamino)-3,5-dihydro-4H-imidazol-4-one], the IC50 lay in the range of 0.1 to 1 µM.

Turning to `CN(C1=N/C(=C\c2ccc3c(c2)OC(F)(F)O3)C(=O)N1)c1ccccc1` [Example 17, (Z)-5-((2,2-difluorobenzo[d][1,3]dioxol-5-yl)methylene)-2-(methyl(phenyl)amino)-3,5-dihydro-4H-imidazol-4-one], the half-maximal inhibitory concentration (IC50) is greater than 10 µM.

As for `O=C1NC(Nc2ccc3ncsc3c2)=N/C1=C\c1ccc2occc2c1` [Example 59, (Z)-2-(benzo[d]thiazol-6-ylamino)-5-(benzofuran-5-ylmethylene)-3,5-dihydro-4H-imidazol-4-one], the IC50 is greater than 10 µM.

As to `O=C1NC(N(Cc2ccccc2)c2ccccc2)=N/C1=C\c1ccc2ncsc2c1` [Example 41, (Z)-5-(benzo[d]thiazol-6-ylmethylene)-2-(benzyl(phenyl)amino)-3,5-dihydro-4H-imidazol-4-one], the half-maximal inhibitory concentration (IC50) fell in the range of 1 to 10 µM.
